System: CD4-positive T-cells
Assay: In vitro T-cell priming with peptide-pulsed autologous DCs, intracellular IFNγ staining of CD4-positive T-cells
Format: cell-based, human
Conditions: for CD4+ T-cell IFNγ response to peptide: donors 1, 2 and 3, positive = more than two-fold over negative controls
Protocol: Maturation of DCs: DCs were prepared using blood from healthy donors. Briefly, PBMCs were isolated using standard gradient centrifugation (Lymphocyte Separation Medium, PAA Laboratories GmbH, Pasching, Austria) and plated at a density of 7×10^6 cells/ml in X-Vivo 15 medium. After 2 hours at 37° C., non-adherent cells were removed and adherent monocytes cultured for 6 days in X-Vivo medium with 100 ng/ml GM-CSF and 40 ng/ml IL-4 (AL-ImmunoTools, Friesoythe, Germany). On day 7, immature DCs were activated with 10 ng/ml TNF-α (R&D Systems, Wiesbaden, Germany) and 20 μg/ml poly(IC) (Sigma Aldrich, Steinheim, Germany) for 3 days.
Generation of antigen-specific CD4-positive T-cells: 10^6 PBMCs per well were stimulated with 2×10^5 peptide pulsed (5 μg/ml) autologous DCs. Cells were incubated in 96-well plates (7 wells per donor and per peptide) with T-cell medium: supplemented RPMI 1640 in the presence of 10 ng/ml IL-12 (Promocell, Heidelberg, Germany). After 3 to 4 days of co-incubation at 37° C., fresh medium with 80 U/ml IL-2 (Proleukin, Chiron Corporation, Emeryville, Calif., USA) and 5 ng/ml IL-7 (Promocell) was added. Restimulations were done with autologous PBMCs plus peptide every 6 to 8 days.
Intracellular IFNγ staining: After 3 and 4 rounds of stimulation, PBMCs were thawed, washed twice in X-Vivo 15 medium, resuspended at 10^7 cells/ml in T-cell medium and cultured overnight. On the next day, PBMCs, pulsed with 5 μg/ml peptide, were incubated with effector cells in a ratio of 1:1 for 6 h. Golgi-Stop (Becton Dickinson, Heidelberg, Germany) was added for the final 4 h of incubation.
Cells were analyzed using a Cytofix/Cytoperm Plus kit (Becton Dickinson) and CD4-FITC-(Immunotools), IFNγ-PE- and CD8-PerCP clone SK1-antibodies (Becton Dickinson). For negative controls, cells of seven wells were pooled and incubated either with irrelevant peptide or without peptide, respectively. Stimulation with PMA/Ionomycin was used for positive control. Cells were analyzed on a three-color FACSCalibur (Becton Dickinson).
To generate antigen-specific CD4-positive T-cells and to test the peptides for promiscuous binding, PBMCs of 4 healthy donors with different HLA-DR alleles (FIG. 2), one of them carrying DRB1*1101, were stimulated using peptide-pulsed autologous DCs. […] As a read-out system for the generation of antigen-specific CD4-positive T-cells, IFNγ levels were assessed by flow cytometry. T-cells were analyzed after the third and fourth weekly stimulation by intracellular IFNγ staining plus CD4-FITC and CD8-PerCP staining to determine the percentage of IFNγ-producing cells in specific T-cell subpopulations. […]

Sequence | maximal frequency of IFNγ producing CD4+ T-cells (donor 2) [%] | maximal frequency of IFNγ producing CD4+ T-cells (donor 3) [%] | CD4+ T-cell IFNγ response to peptide
HSKIIIIKKGHAK (listed as Homo sapiens) [SEQ ID NO: 48] | 0.05 | 0.07 | –
NPPSMVAAGSVVAAV (listed as Homo sapiens) [SEQ ID NO: 49] | – | – | showed IFNγ responses
SQDDIKGIQKLYGKRS [SEQ ID NO: 1] | – | – | showed CD4^+ T-cells reactive

From patent US8258260B2, “Tumor-associated peptides binding promiscuously to human leukocyte antigen (HLA) class II molecules” (Immatics Biotechnologies GmbH, priority 2005, dated 2012)
